Measured values reported in patent US5093327A, “Inhibition of HIV and other retroviruses by polyoxoanions” (Du Pont Merck Pharmaceutical Company, priority 1991, dated 1992).
In brackets after ≈: the same amount, converted by molar mass.

Legend:
[1] = tested on: Friend leukemia virus (FLV); experiment: XC plaque assay for quantitation of Friend leukemia virus (FLV) in vitro; assay type: cell-based; settings: for FLV In Vitro IC50: XC plaque formation
[2] = tested on: Friend leukemia virus (FLV); experiment: Splenomegaly assay for quantitation of Friend leukemia virus (FLV) in vivo; parameters: species or system Female Balb/c mice; settings: for FLV In Vivo ED50: 50% inhibition of virus-induced splenomegaly, once a day through 7 days post-infection, 30240 min
[3] = tested on: HIV-IIIB in ATH8 cells; experiment: HIV Infectivity Assay in ATH8 Cells (50% protection from virus-induced cytopathogenesis); assay type: cell-based; settings: for HIV Infectivity ATH8 IC50: ATH8 cells, HIV-IIIB, 10 days
[4] = tested on: HIV-IIIB in H9 cells (reverse transcriptase); experiment: HIV Infectivity Assay in H9 Cells (HIV reverse transcriptase production); assay type: cell-based; settings: day 10
[5] = tested on: Rauscher leukemia virus (RLV); experiment: Splenomegaly assay for quantitation of Rauscher leukemia virus (RLV) in vivo; parameters: species or system Female BALB/c mice; settings: 50% inhibition of virus-induced splenomegaly, ip, once a day through 14 days post-infection; 30240 min
Text: Treatment is given once a day, continuing through 14 days post-infection. Ribavirin is used as a positive control compound. Uninfected, vehicle-treated mice serve as normal spleen controls, while infected, vehicle-treated mice serve as infected spleen controls. At 21 days post-infection the mice are sacrificed and spleens are surgically excised and weighed.

[6] = tested on: FLV; experiment: Combination therapy with AZT against FLV-induced splenomegaly; assay type: in vivo, mice
Experimental: (§1) Female Balb/c mice are infected intraperitoneally with 0.2 ml of FLV suspension at a concentration predetermined to induce spleen weights of 1-2 grams in vehicle-treated control mice at 21 days post-infection. Beginning 24 hours post-infection, mice (10/group) are treated with 10-100 mg/kg of test compound in Sterile Normal Saline for injection (USP) as a carrier for either intraperitoneal, subcutaneous, intravenous or oral route administration. Treatment is given once a day, continuing through 7 days post-infection. AZT is used as a positive control compound. Uninfected, vehicle-treated mice serve as normal spleen controls, while virus-infected, vehicle-treated mice serve as infected spleen controls. At 21 days post-infection the mice are sacrificed and spleens are surgically excised and weighed. Results are expressed as Treated/Control (T/C), where control represents the means spleen weight of FLV-infected, vehicle-treated mice and is arbitrarily set to 1.0. The doses of test compounds required to inhibit virus-induced splenomegaly by 50% (ED50) are shown in Table 1 as compared to AZT the control compound.
Since AZT is currently approved for the clinical treatment of HIV/AIDS, a combination therapy of AZT and the compounds of the present invention for the treatment of retrovirus and, particularly HIV/AIDS, may be a favorable alternative treatment plan. In order to determine how effective the compounds would be if given together, the following study was done.
FLV-infected mice are treated with compound 1 (0.8-20 mg/kg), alone or in combination with AZT (8-200 mg/kg). Starting one day post-infection compounds are given once daily for seven days. Compound 1 is administered subcutaneously (sc) while AZT is administered intraperitoneally (ip) in order not to physically mix the compounds at the same site.

[7] = tested on: FLV; experiment: Alternate dosing regimen with combination therapy with AZT against FLV-induced splenomegaly; assay type: in vivo, mice
[8] = tested on: SIV; experiment: Activity against SIV; assay type: cell-based
[9] = tested on: FLV; experiment: Compound 1/Poly-I:C combination therapy against FLV-induced splenomegaly; assay type: in vivo, mice; settings: for reduction of splenomegaly: individual dosing
Experimental: as §1
FLV-infected mice are treated with compound 1 (1.25-20.00 mg/kg S.C. daily x 7d beginning one day post-infection alone or in combination with Poly-I:C (0.31-5.0 mg/kg ip daily x 7d beginning one day post-infection. Results are shown in Table 4.

[10] = tested on: LPBM-5; experiment: Activity against LPBM-5 in vivo

## K6 [Compound 5, K6 [SiTiW11 O40]]
[1]
  FLV In Vitro IC50: 3 µg/mL
[2]
  FLV In Vivo ED50: 20 mg/kg
[3]
  HIV Infectivity ATH8 IC50: 3.2 µg/mL

## β-Cs5 [Compound 4, β-Cs5 [PV2 W10 O40]]
[1]
  FLV In Vitro IC50: 7 µg/mL
[4]
  HIV Infectivity RT/H9 IC50: < 10 µg/mL
[2]
  FLV In Vivo ED50: 10 to 20 mg/kg
[3]
  HIV Infectivity ATH8 IC50: 1.6 µg/mL

## K7 [Compound 6, K7 [PTi2 W10 O40]]
[1]
  FLV In Vitro IC50: 5 µg/mL
[2]
  FLV In Vivo ED50: IA (Inactive)
[3]
  HIV Infectivity ATH8 IC50: 5.6 µg/mL

## Na12 [Compound 7, Na12 [P2 W15 O62]]
[2]
  FLV In Vivo ED50: > 20 mg/kg
[3]
  HIV Infectivity ATH8 IC50: 2.6 µg/mL

## K9 (NH4)H2 [Compound 8, K9 (NH4)H2 [(OCe)3 (PW9 O34)2]]
[1]
  FLV In Vitro IC50: 10 µg/mL
[2]
  FLV In Vivo ED50: 10 to 20 mg/kg
[3]
  HIV Infectivity ATH8 IC50: 1.0 µg/mL

## 1,2-K5 [Compound 2, 1,2-K5 [PV2 W10 O40]]
[1]
  FLV In Vitro IC50: 2.5 µg/mL
[4]
  HIV Infectivity RT/H9 IC50: < 10 µg/mL
[2]
  FLV In Vivo ED50: 10 to 20 mg/kg
[5]
  RLV In Vivo ED50: 15 to 20 mg/kg
[3]
  HIV Infectivity ATH8 IC50: 1.0 µg/mL

## K7 [Compound 3, K7 [BV^IV W11 O40]]
[1]
  FLV In Vitro IC50: 0.1 µg/mL
[4]
  HIV Infectivity RT/H9 IC50: < 10 µg/mL
[2]
  FLV In Vivo ED50: 7.5 mg/kg
[3]
  HIV Infectivity ATH8 IC50: 1.5 µg/mL

## Cc1cn([C@H]2C[C@H](N=[N+]=[N-])[C@@H](CO)O2)c(=O)[nH]c1=O [AZT, 3'-Azido-3'-deoxythymidine, reference compound]
[6]; AZT 8 mg/kg ip, Cpd 1 0, days 1-7
  T/C (spleen weight): 0.83
[6]; AZT 40 mg/kg ip, Cpd 1 0, days 1-7
  T/C (spleen weight): 0.69
[6]; AZT 200 mg/kg ip, Cpd 1 0, days 1-7
  T/C (spleen weight): 0.46
[6]; AZT alone at 200 mg/kg
  percent reduction in splenomegaly: about 50%
[1]; read-out: FLV In Vitro IC50
  IC50: 5 ng/mL (≈ 0.0187 µM)
[2]; Mus musculus, 504 h, read-out: FLV In Vivo ED50
  ED50: 100 mg/kg
[7]; AZT 12.5 mg/kg ip daily x 7 days, no Cpd 1 (Control)
  T/C (spleen weight): 0.93
[7]; AZT 50 mg/kg ip daily x 7 days, no Cpd 1 (Control)
  T/C (spleen weight): 0.71
[7]; AZT 200 mg/kg ip daily x 7 days, no Cpd 1 (Control)
  T/C (spleen weight): 0.45
[7]; AZT alone
  reduction in splenomegaly: 30-50%
[3]; Human immunodeficiency virus 1, IIIB, ATH-8, 240 h, read-out: HIV Infectivity ATH8 IC50
  IC50: 5 ng/mL (≈ 0.0187 µM)
[3]; in vitro, data in Table 1
  in vitro potency of AZT relative to the polyoxoanions: more potent in vitro than the polyoxoanions of the present invention

## K6 [Compound 1, K6 [BVW11 O40]]
[6]; Cpd 1 0.8 mg/kg sc, AZT 0, days 1-7
  T/C (spleen weight): 1.0
[6]; Cpd 1 4.0 mg/kg sc, AZT 0, days 1-7
  T/C (spleen weight): 0.94
[6]; Cpd 1 20.0 mg/kg sc, AZT 0, days 1-7
  T/C (spleen weight): 0.52
[6]; compound 1 alone at 20 mg/kg
  percent reduction in splenomegaly: about 50%
[1]
  FLV In Vitro IC50: 1 µg/mL
[8]
  IC50 against SIV: < 1 µg/mL
[4]
  HIV Infectivity RT/H9 IC50: < 10 µg/mL
[9]; Cpd 1 1.25 mg/kg S.C. daily x 7 days, Poly-I:C 0
  T/C (spleen weight): 0.8
[9]; Cpd 1 5.0 mg/kg S.C. daily x 7 days, Poly-I:C 0
  T/C (spleen weight): 0.58
[9]; Cpd 1 20.0 mg/kg S.C. daily x 7 days, Poly-I:C 0
  T/C (spleen weight): 0.33
[9]; compound 1 20 mg/kg
  reduction of splenomegaly: 60%
[2]
  FLV In Vivo ED50: 10 to 20 mg/kg
[5]
  RLV In Vivo ED50: 10 to 20 mg/kg
[7]; Cpd 1 80 mg/kg S.C. days 1 & 10, AZT 0
  T/C (spleen weight): 0.21
[7]; Cpd 1 80 mg/kg S.C. days 1 & 14, AZT 0
  T/C (spleen weight): 0.17
[7]; Cpd 1 80 mg/kg S.C. days 1 & 17, AZT 0
  T/C (spleen weight): 0.5
[7]; two doses of compound 1 alone, 10-17 days apart
  efficacy of two doses administered alone: efficacious
[3]
  HIV Infectivity ATH8 IC50: 1.0 µg/mL
[10]
  ED50 against LPBM-5 in vivo: 10 to 20 mg/kg

## PolyInosinic-PolyCytidylic Acid [Poly-I:C, reference compound]
[9]; Poly-I:C 0.31 mg/kg ip daily x 7 d, Cpd 1 0
  T/C (spleen weight): 1.2
[9]; Poly-I:C 1.25 mg/kg ip daily x 7 d, Cpd 1 0
  T/C (spleen weight): 1.1
[9]; Poly-I:C 5.0 mg/kg ip daily x 7 d, Cpd 1 0
  T/C (spleen weight): 0.39
[9]; Poly-I:C 5 mg/kg
  reduction of splenomegaly: 60%
